Measured values from patent publication EP4702986A1, “POLYPEPTIDE AND USE THEREOF” (Biocells (Beijing) Biotech Co., Ltd., priority 2023, dated 2024).
“Also recorded” adds a separate entry of the source. Numbered stars: 1 amine (or outer) side, 2 acyl side, 3 side chain; on linkers, the order of the positions; unused ones are H or OH. Side chains are listed from the residue outwards. Peptide text beside a SMILES is read from it. * marks the point of attachment. C18 diacid = O=C(O)CCCCCCCCCCCCCCCCC(=O)*; γGlu = O=C(O)[C@H](CCC(=O)[*:2])N[*:1]; Fumaroyl = O=C(O)/C=C/C(=O)*; Lauroyl = CCCCCCCCCCCC(=O)*; AEEA = NCCOCCOCC(=O)O

Legend:
rat model of pMACO [1] = experiment: Foot fault test in rat model of pMACO; assay type: in vivo, SD rats
Text: Male SD rats weighing 280-300 g were used and acclimated for at least 3 days. Focal cerebral ischemia was induced by middle cerebral artery occlusion with a suture method under isoflurane anesthesia. The animals were placed in a secure supine position, and a midline incision was made to expose the right common carotid artery, external carotid artery, and internal carotid artery. A 4.0 monofilament nylon suture was advanced from the external carotid artery toward the internal carotid artery lumen until resistance was felt ( ~ 20 mm), indicating middle cerebral artery occlusion. The nylon filament was allowed to stay in place to create a permanent model of focal cerebral ischemia. Successfully modeled rats were randomly assigned to four groups: a solvent (normal saline) group (n=10), a 7 µg/Kg BX-34 group (n=10), a 5 µg/Kg BX-48 group (n=10), and a 5 µg/Kg IRL1620 group (n=10). Each group was administered once at 2 hours, 4 hours, and 6 hours, respectively, after modeling, for a total of three administrations. Grip strength was measured before administration and at 24 hours and on D3 and D7 after administration. A rotarod test and a foot fault test were performed before administration and at 24 hours and day 7 after administration. During the rotarod test, time and distance were recorded, and ratios of the measurement at 24 hours and the measurement at D7 to the pretest measurement were used as analysis indicators. The specific method for the foot fault test was as follows. The rats were placed on an elevated grid floor (29×29 cm, grid opening: 3 cm^2) for 2 minutes, and the number of foot faults (when a forelimb fell through the grid) and the total steps were recorded. % Foot fault = (the number of forelimb faults/the total number of forelimb steps) × 100.

rat model of pMACO [2] = experiment: Grip strength test in rat model of pMACO; assay type: in vivo, SD rats; settings: rat, in vivo
rat model of pMACO [3] = experiment: mRS-6 scoring in rat model of pMACO; assay type: in vivo, SD rats; parameters: mRS-7D / mRS-14D / mRS-21D / mRS-30D: scale not given here; settings: for mRS-7D: day 7; for mRS-14D: day 14; for mRS-21D: day 21; for mRS-30D: day 30
Text: (§1) Male SD rats, weighing 280-300 g, were used and acclimatized for at least 3 days. Focal cerebral ischemia was induced by middle cerebral artery occlusion with a suture method under isoflurane anesthesia. The animals were placed in a supine position, a midline incision was made, and the right common carotid artery, external carotid artery, and internal carotid artery were exposed. A 4.0 monofilament nylon suture was advanced from the external carotid artery toward the internal carotid artery lumen until resistance was felt (~20 mm), indicating middle cerebral artery occlusion. The nylon filament was allowed to stay in place to create a permanent model of focal cerebral ischemia. The day of modeling was defined as D1, the next day as D2, and so on. Since the experiment was not be completed in a single batch, and in order to prevent accidental errors, all operations in this experiment had to follow the principle of parallel operation, i.e., the experiment on each day needed to include animals from each group. Sequential numbering for surgical modeling was obtained by sorting the animals according to their body weight before the experiment. After the surgery, successfully modeled pMCAO rats were randomly assigned into a model group and various treatment groups. The detailed grouping of the experiment was as follows: (1) 15 rats in the 5 µg/Kg IRL1620 group with 9 administrations over 3 days; (2) 15 rats in the 6.6 µg/Kg BX225 group with 9 administrations over 3 days; (3) 15 rats in the 19.8 µg/Kg BX225 group with 3 administrations over 3 days; (4) 15 rats in the model (normal saline) group; and (5) 6 rats in the sham group (the sham group underwent the same procedure without vascular ligation and suture insertion). The administration was performed via tail vein injection (iv) with an administration volume of 2 mL/kg. The first administration was 2 hours after the surgery. Administration frequencies were single and multiple administrations per day according to the experimental design. Administrations were performed on D1, D3, and D6, respectively, as detailed in Table 22. The model group and the sham group were given the same volume of vehicle normal saline.

male SD rats = experiment: in vivo; settings: one animal per row, observed 24 hours
Method in brief: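 Male SD rats (200-230 g) given single tail-vein injections, descending doses from 480 µg/Kg to 30 µg/Kg. Toxic response, mortality and time of death recorded; acute toxicity level preliminarily set from doses without mortality.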

rat model of pMACO [4] = experiment: Garcia JH scoring in rat model of pMACO; assay type: in vivo, SD rats; parameters: 5 min Spontaneous Activity / Body Symmetry / Forelimb Extension Movement / Cage Climbing / Body Tactile Response on Both Sides / Beard Touch Reaction on Both Sides / Total Score: scale not given here; settings: for 5 min Spontaneous Activity / Beard Touch Reaction on Both Sides / Body Symmetry / Body Tactile Response on Both Sides / Cage Climbing / Forelimb Extension Movement / Total Score: Garcia JH score
Text: as §1

[5] = 3Time regimen: IRL1620 5 µg/Kg, BX225 6.6 µg/Kg
[6] = pMCAO rats, 6.6 µg/Kg three-dose group, iv
[7] = Day 21, 19.8 µg/Kg, 1Time regimen
[8] = Day 21, 3Time regimen: IRL1620 5 µg/Kg, BX225 6.6 µg/Kg
[9] = Day 30, 19.8 µg/Kg, 1Time regimen
[10] = Day 30, 3Time regimen: IRL1620 5 µg/Kg, BX225 6.6 µg/Kg

Structure (SMILES): CC[C@H](C)[C@H](NC(=O)[C@H](CC(=O)O)NC(=O)[C@H](CCCCNC(=O)COCCOCCNC(=O)COCCOCCNC(=O)CC[C@H](NC(=O)CCCCCCCCCCCCCCCCC(=O)O)C(=O)O)NC(=O)[C@H](Cc1c[nH]cn1)NC(=O)[C@H](C)NC(=O)[C@H](Cc1ccccc1)NC(=O)[C@H](Cc1ccc(O)cc1)NC(=O)[C@@H](NC(=O)[C@H](C)NC(=O)[C@H](CCC(=O)O)NC(=O)[C@H](CCC(=O)O)NC(=O)[C@H](CC(=O)O)NC(=O)/C=C/C(=O)O)C(C)C)C(=O)N[C@H](C(=O)N[C@@H](Cc1c[nH]c2ccccc12)C(=O)O)[C@@H](C)CC [BX-34] (Fumaroyl-DEEAVYFAHK([AEEA-AEEA-γGlu-C18 diacid])DIIW-OH)
- percentages of foot faults compared with the saline group and the IRL1620 group (rat model of pMACO [1]; pMACO rats, BX-34 7 µg/Kg, BX-48 5 µg/Kg, three administrations): lower
- Foot fault Analysis Mean of 7D (rat model of pMACO [1]; percentage of foot faults at 7D, IRL1620 5 µg/Kg, BX34 7 µg/Kg, BX48 5 µg/Kg, administered 3 times (2, 4, 6 hours after modeling)): 3.46%±2.92%
- Foot fault Analysis Mean of 24h (rat model of pMACO [1]; percentage of foot faults at 24h, IRL1620 5 µg/Kg, BX34 7 µg/Kg, BX48 5 µg/Kg, administered 3 times (2, 4, 6 hours after modeling)): 10.64%±15.53%
- Foot fault Analysis Mean of Pretest (rat model of pMACO [1]; percentage of foot faults, pretest (baseline before administration), groups IRL1620 5 µg/Kg, BX34 7 µg/Kg, BX48 5 µg/Kg, 3 times): 1%±1%
- Grip Strength Test 3D/pre (rat model of pMACO [2]): 63% ±14%
- Grip Strength Test 7D/pre (rat model of pMACO [2]): 67% ±19%
- Grip Strength Test 24h/pre (rat model of pMACO [2]): 40% ±24%

Structure (SMILES): CCCCCCCCCCCC(=O)N[C@@H](CCC(=O)NCCOCCOCC(=O)NCCCC[C@H](NC(=O)[C@H](Cc1c[nH]cn1)NC(=O)[C@H](C)NC(=O)[C@H](Cc1ccccc1)NC(=O)[C@H](Cc1ccc(O)cc1)NC(=O)[C@@H](NC(=O)[C@H](C)NC(=O)[C@H](CCC(=O)O)NC(=O)[C@H](CCC(=O)O)NC(=O)[C@H](CC(=O)O)NC(=O)/C=C/C(=O)O)C(C)C)C(=O)N[C@@H](CC(=O)O)C(=O)N[C@H](C(=O)N[C@H](C(=O)N[C@@H](Cc1c[nH]c2ccccc12)C(=O)O)[C@@H](C)CC)[C@@H](C)CC)C(=O)O [BX-225] (Fumaroyl-DEEAVYFAHK([AEEA-γGlu-Lauroyl])DIIW-OH)
- mRS-7D (rat model of pMACO [3]; 19.8 µg/Kg, 1Time regimen): 3.14±2.14
- mRS-7D (rat model of pMACO [3]; [5]): 1.67±0.50
- mRS-14D (rat model of pMACO [3]; 19.8 µg/Kg, 1Time regimen): 3.90±2.61
- mRS-14D (rat model of pMACO [3]; [5]): 1.17±0.50
- mRS-21D (rat model of pMACO [3]; 19.8 µg/Kg, 1Time regimen): 3.73±2.81
- mRS-21D (rat model of pMACO [3]; [5]): 0.75±0.41
- mRS-30D (rat model of pMACO [3]; 19.8 µg/Kg, 1Time regimen): 3.65±2.91
- mRS-30D (rat model of pMACO [3]; [5]): 0.50±0.31
- mRS-6 score on day 14 compared with the normal saline group and the IRL1620 three-dose group (rat model of pMACO [3]; [6]): close to a significant difference
- mRS-6 scores, course from day 7, day 14, day 21, to day 30 (rat model of pMACO [3]; [6]): continuous improvement
- mRS-6 scores on days 7, 21, and 30 compared with the normal saline group and the IRL1620 three-dose group (rat model of pMACO [3]; pMCAO rats, 6.6 µg/Kg three-dose group, iv, P<0.05): significant differences
- Observations of Animal Status (male SD rats; intravenous (tail vein) 30 µg/Kg): No obvious abnormalities observed within 24 hours
- Observations of Animal Status (male SD rats; intravenous (tail vein) 60 µg/Kg): Lay still and showed no willingness to move at 7 minutes; became active at 10 minutes; signs of pain were observed in the animal through pupil observation; no pain at 23 minutes; also recorded: Lay still and showed no willingness to move at 7 minutes; became active at 10 minutes; signs of pain were observed in the animal through pupil observation; developed rapid breathing at 35 minutes; died at 70 minutes
- Observations of Animal Status (male SD rats; intravenous (tail vein) 120 µg/Kg): Breathing became slightly faster at 2 minutes, showed no willingness to move, had slow reactions, and breathing speeded up at 25 minutes; the symptoms basically eased at 1.5 hours; also recorded: Showed no willingness to move, had slow reactions, and breathing became slightly faster at 10 minutes; the symptoms lasted for nearly 1 hour; the symptoms basically eased at 1 hour and 10 minutes; also recorded: Developed abdominal breathing and lay still at 27 minutes; died of difficulty in breathing at 40 minutes; also recorded: Developed abdominal breathing and lay still at 25 minutes; died of difficulty in breathing at 32 minutes
- Observations of Animal Status (male SD rats; intravenous (tail vein) 240 µg/Kg): Developed rapid breathing at 4 minutes, collapsed at 5 minutes, eyes turned dull at 7 minutes; died at 12 minutes
- 5 min Spontaneous Activity (rat model of pMACO [4]; [7]): 1.17±1.47
- Beard Touch Reaction on Both Sides (rat model of pMACO [4]; [7]): 1.63±0.80
- Body Symmetry (rat model of pMACO [4]; [7]): 0.63±0.80
- Body Tactile Response on Both Sides (rat model of pMACO [4]; [7]): 1.60±0.77
- Cage Climbing (rat model of pMACO [4]; [7]): 1.69± 0.85
- Forelimb Extension Movement (rat model of pMACO [4]; [7]): 0.80±1.01
- Total Score (rat model of pMACO [4]; [7]): 7.51± 5.58
- 5 min Spontaneous Activity (rat model of pMACO [4]; [8]): 2.89±0.33
- Beard Touch Reaction on Both Sides (rat model of pMACO [4]; [8]): 2.70±0.25
- Body Symmetry (rat model of pMACO [4]; [8]): 1.74±0.48
- Body Tactile Response on Both Sides (rat model of pMACO [4]; [8]): 2.50±0.23
- Cage Climbing (rat model of pMACO [4]; [8]): 2.30± 0.71
- Forelimb Extension Movement (rat model of pMACO [4]; [8]): 1.87±0.52
- Total Score (rat model of pMACO [4]; [8]): 13.99 ±1.49
- 5 min Spontaneous Activity (rat model of pMACO [4]; [9]): 1.25±1.54
- Beard Touch Reaction on Both Sides (rat model of pMACO [4]; [9]): 1.50±0.65
- Body Symmetry (rat model of pMACO [4]; [9]): 0.78±0.98
- Body Tactile Response on Both Sides (rat model of pMACO [4]; [9]): 1.46±0.59
- Cage Climbing (rat model of pMACO [4]; [9]): 1.79±0.98
- Forelimb Extension Movement (rat model of pMACO [4]; [9]): 0.93+1.15
- Total Score (rat model of pMACO [4]; [9]): 7.71± 5.82
- 5 min Spontaneous Activity (rat model of pMACO [4]; [10]): 3.00±0.00
- Beard Touch Reaction on Both Sides (rat model of pMACO [4]; [10]): 2.39±0.13
- Body Symmetry (rat model of pMACO [4]; [10]): 2.07±0.29
- Body Tactile Response on Both Sides (rat model of pMACO [4]; [10]): 2.29±0.18
- Cage Climbing (rat model of pMACO [4]; [10]): 2.81±0.15
- Forelimb Extension Movement (rat model of pMACO [4]; [10]): 2.25±0.23
- Total Score (rat model of pMACO [4]; [10]): 14.81 ±0.56
- Garcia JH scores on days 21 and 30 compared with the normal saline group (rat model of pMACO [4]; [6]): statistical differences
- Garcia JH scores, course from day 7, day 14, day 21, to day 30 (rat model of pMACO [4]; [6]): continuous improvement trend
